In patent US20060264475A1, “COMPOUNDS, COMPOSITIONS AND METHODS FOR INHIBITING OR TREATING HIV-1” (CYTOKINE PHARMASCIENCES, INC., priority 2004, published 2006):

How the values were obtained:
ADA strain of HIV-1 = test: inhibition of HIV-1 infection in monocyte-derived macrophages; format: cell-based; conditions: 10, 1, 0.1, 0.01 μM; over a two week period; FIG. 2
Experimental: Macrophages were prepared as described above. After a week of culture in M-CSF, cells were washed several times in RPMI and pre-incubated in complete (NHS, pen/strep, L-glutamine) medium with compound ITI-367 in appropriate concentration overnight (10, 1, 0.1, and 0.01 μM). [ITI-367 having been dissolved in DMSO at 10 mM concentration which was used as a stock solution (stored at −70° C.). From the stock solutions a 50 μM solution of compound in RPMI was prepared and stored at 4° C.]. After overnight incubation with compound, cells were infected with 500,000 cpm (RT activity) of the ADA strain of HIV-1 in 500 μl of RPMI with or without the compound. Two hours after infection, cells were washed with RPMI and incubated in fresh complete medium with the appropriate concentration of compound. Every 3-4 days, half of the medium was collected and used to quantify the level of virus production. Cultures were supplemented with additional medium. Infected macrophages were maintained for 2-3 weeks.

[1] = tested on: HIV-1 CCR5 clinical isolate; test: inhibition of HIV-1 infection of T lymphocytes (tonsil cells), p24 ELISA; format: cell-based
Experimental: T lymphocytes were isolated from tonsil tissue 24 hours post-surgical removal and then frozen. Aliquots of all were thawed on day of testing. There was no exogenous stimulation of the tonsil cells. The virus was a CCR5 clinical isolate at an approximate MOI of 1:40,000. Cells were incubated in the presence of ITI-367 for 19 hours prior to a 2.5 hour infection, at which time the virus inoculum was removed followed by two complete media exchanges. Cell culture media was Iscove's Media with 2 mM L-Glutamine, 100 U/ml Penicillin, 100 ug/ml Streptomycin, and 8% heat-inactivated human serum AB. The drug concentrations used were 20 uM, 10 uM, 1 uM and 0.1 uM, prepared from a 50 mM DMSO stock. A no drug infection control (media only) was also evaluated in parallel. Replicates of four or six cultures were used to assess virus production from ITI-367 treated or control samples, respectively. Virus production was evaluated on days 3, 6, 10, 13, & 17 post-infection, by specific ELISA for HIV-1 core antigen (p24). Also, in FIG. 4, virus production was evaluated as a function of drug concentrations at 0, 0.1, 0.5, 1, 5 and 10 μM.

[2] = tested on: HIV-1 CCR5 clinical isolate; test: ITI-367 combination assay, HIV-1 infectivity in tonsil cells, p24 ELISA; format: cell-based; conditions: combined with NRTi (AZT, d4T), NNRTi (efavirenz), Pi (saquinavir, nelfinavir), FIG. 5-9
Experimental: The inhibitory potential of ITI-367 was tested using HIV-1 infectivity assays in combination with different FDA-approved drugs. […] Tonsil cells, isolated 24 hours post-surgical removal of tonsil tissue then frozen, were used as the target cells. Aliquots of the cells were thawed on the day of testing. There was no exogenous stimulation of the tonsil cells. The virus was a CCR5 clinical isolate at an approximate MOI of 1:40,000. Cells were incubated in the presence of drug for 17 hours prior to a 3.5 hour infection, at which time the virus inoculum was removed through three complete media exchanges. The cells were in the presence of drug before, during, and after all media removals. […]
Cells were cultured at 37° C. and 5% CO2 Samples (150 μl) were harvested on days 3, 5, 7, and 10 post-infection for HIV-1 p24 content analysis by ELISA. […] Uninfected, untreated cells were counted at each sampling to monitor tonsil cell growth kinetics.

[3] = target: T1, association of the viral matrix protein (p 17) with karyopherin α (Human immunodeficiency virus type 1 group M subtype B, UniProt P04591); test: cell free assay of PIC binding to karyopherin α (HIV DNA in the Kα fraction); conditions: cytoplasmic extracts of HIV-1 infected human monocyte-derived macrophages; FIG. 1
T1 construct: The PIC is comprised of a number of viral proteins including MA (p17); endogenous in cells; host or cells: cytoplasmic extracts of human monocyte-derived macrophages infected with HIV-1 (virus-made protein in the PIC)
From the text: The inhibition of a molecular target by ITI-367 is illustrated in FIG. 1. The molecular target for nuclear entry of HIV-1 is the association of the viral matrix protein (p 17) carrying the nuclear localization sequences, with the intracellular protein karyopherin α. To validate the activity of ITI-367, a cell free assay was used whereby human monocyte-derived macrophages collected from fresh blood samples were infected with HIV-1. At the predetermined time cells were lysed and the cytoplasmic extracts collected. The extracts contain HIV-1 pre-integration complexes (PIC) that represent the structure within which the HIV-1 cDNA is imported into the nucleus. The PIC is comprised of a number of viral proteins including MA (p17). […] Therefore, this is a cell free assay. The extent of binding was measured by evaluating the levels of HIV DNA found in the Kα fraction in the presence or absence of test compound.

In the case of `COc1ccccc1-c1noc(=O)n1-c1cccc(C(F)(F)F)c1` [ITI-367], the “inhibition of HIV-1 infection in monocyte-derived macrophages” value (ADA strain of HIV-1) is reported as “inhibition of HIV-1 infection”, the “inhibition of HIV-1 infection of T lymphocytes” value ([1]; 20, 10, 1, 0.1 uM, p24 over a seventeen day period, FIG. 3) is reported as “inhibition of HIV-1 infection” and the “inhibition of replication of HIV-1 in Primary Lymphocytes” value ([1]; virus production as a function of drug concentration 0-10 μM, FIG. 4) is reported as “inhibition”. For the same compound, the “combination effect on inhibition of HIV-1 replication” value [2] was “synergistic effect” and the “inhibition of association of PIC (MA p17) with karyopherin α” value [3] was “inhibition”.
